# From BindingDB's records for doi:10.1016/j.bmcl.2008.08.034 (University of Illinois At Chicago, 2008)
# Target: T1, 1-deoxy-D-xylulose-5-phosphate synthase (Mycobacterium tuberculosis (strain ATCC 25618 / H37Rv), UniProt P9WNS3)
# T1 sequence (P9WNS3 whole entry): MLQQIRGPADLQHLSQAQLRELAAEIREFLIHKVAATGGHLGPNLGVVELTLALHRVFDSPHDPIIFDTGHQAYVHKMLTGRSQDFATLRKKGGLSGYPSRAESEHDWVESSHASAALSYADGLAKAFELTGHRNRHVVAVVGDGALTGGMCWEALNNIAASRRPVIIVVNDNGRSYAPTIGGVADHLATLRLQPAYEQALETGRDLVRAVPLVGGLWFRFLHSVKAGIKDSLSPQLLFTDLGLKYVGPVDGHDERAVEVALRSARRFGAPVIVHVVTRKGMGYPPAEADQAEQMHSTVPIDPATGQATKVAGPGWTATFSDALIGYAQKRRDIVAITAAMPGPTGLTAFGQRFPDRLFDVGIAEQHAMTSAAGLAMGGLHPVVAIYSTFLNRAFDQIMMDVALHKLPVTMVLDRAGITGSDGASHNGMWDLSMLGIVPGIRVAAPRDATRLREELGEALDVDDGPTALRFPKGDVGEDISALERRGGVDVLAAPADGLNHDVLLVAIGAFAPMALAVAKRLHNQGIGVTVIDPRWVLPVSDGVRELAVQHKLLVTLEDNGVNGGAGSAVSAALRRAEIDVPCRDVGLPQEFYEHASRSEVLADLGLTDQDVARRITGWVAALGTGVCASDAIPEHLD
# Experiment: Inhibition of Mycobacterium tuberculosis cloned 1-deoxy-D-xylulose-5-phosphate synthase expressed in Escherichia coli
row,Compound,IC50
1,Cc1nc2c(-c3ccc(Cl)cc3)c(C(F)(F)F)[nH]n2c(=O)c1Cc1ccccc1,> 200 µM
2,"CCCc1c(-c2ccccc2)nc2c(-c3ccccc3)c(C)[nH]n2c1=O [2-methyl-3,5-diphenyl-6-propylpyrazolo[1,5-a]pyrimidin-7(4H)-one]",17.9 µM
3,"Cc1cc(=O)n2[nH]c(C(F)(F)F)c(-c3ccc(Br)cc3)c2n1 [3-(4-bromophenyl)-5-methyl-2-(trifluoromethyl)pyrazolo[1,5-a]pyrimidin-7(4H)-one]",> 200 µM
4,"COCc1cc(O)n2nc(C)c(-c3ccc(Cl)cc3)c2n1 [3-(4-chlorophenyl)-5-(methoxymethyl)-2-methylpyrazolo[1,5-a]pyrimidin-7(4H)-one]",> 200 µM
5,"COCc1cc(=O)n2[nH]cc(-c3ccc(Cl)cc3)c2n1 [3-(4-chlorophenyl)-5-(methoxymethyl)pyrazolo[1,5-a]pyrimidin-7(4H)-one]",> 200 µM
6,"Cc1cc(=O)n2[nH]cc(-c3ccc(Cl)cc3)c2n1 [3-(4-chlorophenyl)-5-methylpyrazolo[1,5-a]pyrimidin-7(4H)-one]",> 200 µM
7,"O=c1cc(CCl)nc2c(-c3ccccc3)c[nH]n12 [5-(chloromethyl)-3-phenylpyrazolo[1,5-a]pyrimidin-7(4H)-one]",> 200 µM
